Results from patent publication US4515793A, “Phenylpiperazines which are useful in the treatment of schistosomiasis” (Edna McConnell Clark Foundation, priority 1983, dated 1985).

System: S. mansoni
Assay: antischistosomal activity in mice (live worm burden, single oral dose)
Format: in vivo, S. mansoni (host: CD1 white female mice)
Conditions: Schistosoma mansoni, single oral dose, read-out: % Reduction Live Worm Burden; for inhibition in vivo at 20 mg/kg / inhibition in vivo at 40 mg/kg / inhibition in vivo at 125 mg/kg: mice
Method: Tests were conducted to determine the antischistosomal activity in mice and monkeys. The results of the mice tests are reported in Tables 1 to 4 along with the chemical identifications of the compounds synthesized and tested.
The mice tests were conducted as follows:
A. Preinfection Procedures: Purina Laboratory chow (Ralston-Purina) and water were given ad libitum. All mice were housed in hanging stainless steel cages, without bedding, five per cage. They were kept in a ward with an ambient temperature of 75° F. and a relative humidity of 50-55%. Therapeutic treatment was given on Day 40 post-infection.
B. Experimental Procedures: CD1 white female mice were exposed by the tail immersion method for 30 minutes to 80 individually counted S. mansoni cercariae (WRAIR laboratory strain). The cercariae were obtained from pools of no less than 25 Biophalaria glabrata snails. Each experiment consisted of 118 mice divided into infected/water treated and infected/vehicle-treated controls, and infected/drug-treated groups (two dose levels) for six compounds. Groups of 12 mice each were treated with a compound synthesized and provided by the Warner-Lambert Company, Ann Arbor, Mich. at two dose levels. At the same time, five mice were sacrificed to establish worm burdens as infection controls. Three weeks after treatment, all remaining mice were sacrificed and perfused. Gross pathology (liver and intestines) was noted and graded (0 to +3). Worm burdens were determined and the sex of the worms recorded. Following perfusions the liver and intestines were removed and examined for the presence of […] or dead worms. […] Drugs were administered orally in Emulphor EL.
C. Drug Treatment: Treatment consisted of a single oral dose. Each drug was give initially at two dose levels, 40 mg/kg and 125 mg/kg, SID×1.
D. Criteria Used to Evaluate Therapeutic Effectiveness:
Evaluation of activity was determined by examination of the animals at 23 to 28 days after treatment. The schistosomes remaining alive after treatment were counted in the perfusates of the hepatic portal system and in press preparation of the livers. In the same preparations, the relative numbers of dead and/or encapsulated (i.e., worms may or may not be dead) parasites and the relative degree of pathology were ascertained. The efficacy of each treatment was that percentage of the control infection represented by the difference between numbers of parasites recovered from control (H2 O+vehicle) and treated animals. Thus, % efficacy is: [formula]

[1] = mice (footnote, 125 mg/kg column)

| SMILES | inhibition in vivo at 20 mg/kg | inhibition in vivo at 40 mg/kg | inhibition in vivo at 125 mg/kg | inhibition in vivo at 160 mg/kg [1] | inhibition in vivo at 50 mg/kg (50 mg/kg, mice (footnote, 40 mg/kg)) | inhibition in vivo at 156 mg/kg (156 mg/kg, mice (footnote, 125 mg/kg column)) |
| --- | --- | --- | --- | --- | --- | --- |
| O=C(CCN1CCN(c2ccc(CO)c(Cl)c2)CC1)c1ccc2ccccc2c1 [compound 36] | 75% | 82% | 95% |  |  |  |
| O=C(CCN1CCN(c2ccc(CO)c(Cl)c2)CC1)c1ccc(Cl)c([N+](=O)[O-])c1 [Cpd. 35] |  | 79% | 98% |  |  |  |
| O=C(CN1CCN(c2ccc(CO)c(Cl)c2)CC1)c1ccsc1 [compound 51] |  | -6% | 83% |  |  |  |
| O=C(CN1CCN(c2ccc(CO)c(Cl)c2)CC1)c1ccc(Cl)cc1O [compound 18] |  | 5% |  | 26% |  |  |
| O=C(CN1CCN(c2ccc(CO)c(Cl)c2)CC1)c1cccc([N+](=O)[O-])c1 [Cpd. 12, 2-[4-[3-chloro-4-(hydroxymethyl)phenyl]-1-piperazinyl]-1(3-nitrophenyl)ethanone] |  | 31% | 73% |  |  |  |
| COc1ccc(C(=O)CN2CCN(c3ccc(CO)c(Cl)c3)CC2)c(OC)c1OC [compound 9] |  | 13% | 30% |  |  |  |
| O=C(CN1CCN(c2ccc(CO)c(Cl)c2)CC1)c1ccc(C(F)(F)F)cc1 [compound 15] |  | 43% | 79% |  |  |  |
| O=C(CN1CCN(c2ccc(CO)c(Cl)c2)CC1)c1cc(Cl)ccc1Cl [compound 20] | 72% | 65% |  | 99% |  |  |
| CS(=O)(=O)c1ccc(C(=O)CCN2CCN(c3ccc(CO)c(Cl)c3)CC2)cc1 [Cpd. 32] | 43% | 84% | 91% |  |  |  |
| Cc1ccsc1C(=O)CN1CCN(c2ccc(CO)c(Cl)c2)CC1 [compound 50] |  | -12% | 28% |  |  |  |
| O=C(CCCN1CCN(c2ccc(CO)c(Cl)c2)CC1)c1cccs1 [Cpd. 58, 4-[4-[3-Chloro-4-(hydroxymethyl)phenyl]-1-piperazinyl]-1-(2-thienyl)-1-butanone] |  | 20% | 77% |  |  |  |
| O=C(CCN1CCN(c2ccc(CO)c(Cl)c2)CC1)c1ccc(Br)cc1 [compound 42] | 82% | 84% | 98% |  |  |  |
| O=C(CCN1CCN(c2ccc(CO)c(Cl)c2)CC1)c1ccco1 [Cpd. 57] | 60% | 85% | 98% |  |  |  |
| O=C(CCN1CCN(c2ccc(CO)c(Cl)c2)CC1)c1ccc(-c2ccccc2)cc1 [compound 44] | 69% | 89% | 97% |  |  |  |
| COc1ccc(C(=O)CCN2CCN(c3ccc(CO)c(Cl)c3)CC2)cc1 [compound 34] |  | 39% | 93% |  |  |  |
| O=C(CN1CCN(c2ccc(CO)c(Cl)c2)CC1)c1cccc2ccccc12 [compound 24] |  | 3% | 64% |  |  |  |
| O=C(CCN1CCN(c2ccc(CO)c(Cl)c2)CC1)c1ccc(Cl)c(Cl)c1Cl [compound 41] | 82% | 83% | 96% |  |  |  |
| O=C(CN1CCN(c2ccc(CO)c(Cl)c2)CC1)c1ccc(Br)s1 [compound 47] |  | 35% | 93% |  |  |  |
| O=C(CN1CCN(c2ccc(CO)c(Cl)c2)CC1)c1ccc(I)cc1 [Cpd. 6] |  | 62% | 83% |  |  |  |
| Nc1cc(C(=O)CN2CCN(c3ccc(CO)c(Cl)c3)CC2)ccc1Cl [compound 26] |  | -12% | 45% |  |  |  |
| CC(O)(CN1CCN(c2ccc(CO)c(Cl)c2)CC1)c1ccc(Cl)cc1 (stereo not shown) [Cpd. 61] | 68% | 88% | 96% |  |  |  |
| O=C(CN1CCN(c2ccc(CO)c(Cl)c2)CC1)c1ccc(Cl)cc1 [Cpd. 1] |  | 42% | 67% |  |  |  |
| O=C(CCN1CCN(c2ccc(CO)c(Cl)c2)CC1)c1cc(Cl)ccc1Cl [compound 43] | 84% | 80% | 98% |  |  |  |
| O=C(CN1CCN(c2ccc(CO)c(Cl)c2)CC1)c1ccc(S(=O)(=O)N2CCCCC2)cc1 [Cpd. 4] |  | -10% | 66% |  |  |  |

| SMILES | inhibition in vivo at 20 mg/kg | inhibition in vivo at 40 mg/kg | inhibition in vivo at 125 mg/kg | inhibition in vivo at 160 mg/kg [1] | inhibition in vivo at 50 mg/kg (50 mg/kg, mice (footnote, 40 mg/kg)) | inhibition in vivo at 156 mg/kg (156 mg/kg, mice (footnote, 125 mg/kg column)) |
| --- | --- | --- | --- | --- | --- | --- |
| O=C(CCN1CCN(c2ccc(CO)c(Cl)c2)CC1)c1ccccc1 [compound 29] |  | 69% | 89% |  |  |  |
| Cc1cc(C)c(C(=O)CN2CCN(c3ccc(CO)c(Cl)c3)CC2)cc1C [compound 17] |  | 29% |  | 71% |  |  |
| CC(C)(C)c1ccc(C(=O)CN2CCN(c3ccc(CO)c(Cl)c3)CC2)cc1 [compound 11] |  | 16% |  | 59% |  |  |
| Cc1ccc(C(=O)CCN2CCN(c3ccc(CO)c(Cl)c3)CC2)cc1 [compound 30] |  | 75% | 96% |  |  |  |
| O=C(CN1CCN(c2ccc(CO)c(Cl)c2)CC1)c1ccc2sc3ccccc3c2c1 [compound 56] |  | 51% | 77% |  |  |  |
| O=C(CN1CCN(c2ccc(CO)c(Cl)c2)CC1)c1cc(Cl)sc1Cl [compound 54] |  | 69% | 83% |  |  |  |
| O=C(CN1CCN(c2ccc(CO)c(Cl)c2)CC1)c1ccc(Cl)cc1Cl [Cpd. 3] | 62% | 81% | 94% |  |  |  |
| O=C(CN1CCN(c2ccc(CO)c(Cl)c2)CC1)c1cccs1 [compound 45] |  | 10% | 68% |  |  |  |
| Nc1cccc(C(=O)CN2CCN(c3ccc(CO)c(Cl)c3)CC2)c1 [Cpd. 25, 2-[4-[3-Chloro-4-(hydroxymethyl)phenyl]-1-piperazinyl]-1-(3-aminophenyl)-ethanone] |  | -11% | 46% |  |  |  |
| C[S+]([O-])c1ccc(C(=O)CCN2CCN(c3ccc(CO)c(Cl)c3)CC2)cc1 (stereo not shown) [compound 38] |  | 73% | 91% |  |  |  |
| Cc1ccc(C(=O)CCCN2CCN(c3ccc(CO)c(Cl)c3)CC2)cc1C [compound 60] |  | 67% | 88% |  |  |  |
| O=C(CN1CCN(c2ccc(CO)c(Cl)c2)CC1)c1ccc2c(c1)Sc1ccccc1S2 [compound 55] |  | 54% | 68% |  |  |  |
| O=C(CN1CCN(c2ccc(CO)c(Cl)c2)CC1)c1ccc(F)cc1 [Cpd. 2] |  | 19% | 61% |  |  |  |
| O=C(CN1CCN(c2ccc(CO)c(Cl)c2)CC1)c1ccco1 [compound 46] |  |  |  |  | 31% | 83% |
| Cc1cc(C)c(C(=O)CN2CCN(c3ccc(CO)c(Cl)c3)CC2)c(C)c1 [compound 21] |  | 27% | 78% |  |  |  |
| O=C(CN1CCN(c2ccc(CO)c(Cl)c2)CC1)c1ccc(I)s1 [compound 48] |  | -20% | 30% |  |  |  |
| O=C(CN1CCN(c2ccc(CO)c(Cl)c2)CC1)c1cccc(Cl)c1 [compound 27] |  | 64% | 83% |  |  |  |
| O=C(CN1CCN(c2ccc(CO)c(Cl)c2)CC1)c1cc(Cl)cc(Cl)c1 [compound 16] |  | 64% | 89% |  |  |  |
| O=C(CN1CCN(c2ccc(CO)c(Cl)c2)CC1)c1ccc(Cl)c([N+](=O)[O-])c1 [Cpd. 14] |  | 56% |  | 99% |  |  |
| COc1cc(C(=O)CN2CCN(c3ccc(CO)c(Cl)c3)CC2)cc(OC)c1OC [compound 10] |  | -23% |  | 13% |  |  |
| O=C(CN1CCN(c2ccc(CO)c(Cl)c2)CC1)c1cc(Cl)c(Cl)cc1Cl [compound 13] | 53% | 86% | 98% |  |  |  |
| O=C(CCN1CCN(c2ccc(CO)c(Cl)c2)CC1)c1ccc(F)cc1F [compound 40] | 71% | 86% | 99% |  |  |  |
| O=C(CN1CCN(c2ccc(CO)c(Cl)c2)CC1)c1ccc(C(=O)Oc2ccccc2)cc1 [compound 7] |  | -20% | 0% |  |  |  |
